# Measurements published in patent publication US7960397B2, “6,9-disubstituted purine derivatives and their use as cosmetics and cosmetic compositions” (Institute of Experimental Botany, Academy of Sciences of …, priority 2007, dated 2011).
# How the values were obtained:
# [1] = tested on: cytokinin-dependent tobacco callus Nicotiana tabacum L. cv. Wisconsin 38; assay: Cytokinin activity in tobacco callus bioassay; assay type: cell-based
# [2] = tested on: Amaranthus caudatus cotyledon/hypocotyl explants; assay: Amaranthus bioassay (betacyanin content); parameters: species or system Amaranthus caudatus var. atropurpurea
# Summary of the method: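 Amaranthus caudatus explants (cotyledons plus hypocotyl) from 72 h dark-grown seedlings were incubated in darkness on medium with 10 mmol Na2HPO4–KH2PO4 pH 6.8, 5 mmol tyrosine and test compound; stock was 10^−3 M in DMSO/water. Betacyanin was measured as A537−A620 and activity expressed relative to 10^−5 M BAP (100%).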
# excised wheat leaf tips = assay: Antisenescence test, retention of chlorophyll in excised wheat leaf tips; parameters: species or system Triticum aestivum cv. Hereward
# Summary of the method: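 Winter wheat seedlings (Triticum aestivum cv. Hereward) were raised on vermiculite with Knop's solution at 25° C. for 7 days. Tips of the first leaf, 35 mm long (five tips, 100 mg combined), stood in […] of test solution in microtiter wells. After 96 h in the dark at 25° C., chlorophyll was extracted in 80% ethanol at 80° C. and read at 665 nm. Activity is relative to 10^−4 M BAP (100%).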
# [3] = tested on: human diploid fibroblasts (HCA cells, HCA20, HCA40, HCA60); assay: Senescent cells (β-galactosidase staining) in culture of human fibroblasts; assay type: cell-based
# Summary of the method: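 Fibroblasts taken at passages 20, 40 and 60 were washed and fixed for 5 min at room temperature in 2% formaldehyde/0.2% glutaraldehyde in PBS. After PBS washes, cells were incubated at 37 °C for β-galactosidase staining.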
# β-adrenergic receptors = assay: Isoproterenol-induced cAMP synthesis in rat C6 glioma; assay type: cell-based; conditions: cellular cAMP, simultaneous addition with isoproterenol, 30 min
# Experimental: Anti-inflammatory activity. The compounds of formula 1 having anti-inflammatory activities can be used as cosmetics for treating inflammation skin disorders as atopic dermatitis, lichen planus, hyperpigmentation and Herpes simplex lesions. From this reason, rat C6 glioma (ATCC No. CCL107) was cultivated as a monolayer in a serum-free chemically defined medium containing Ham's F10-minimal essential medium (1:1 v/v), 2 mM L-glutamine, 1% (v/v) minimal essential medium vitamins (100×), 1% (v/v) minimal essential medium nonessential amino acids (100×), 100U/ml penicillin, […] streptomycin and 30 nM sodium selenite. Incubation was performed at 37° C. in a humidified atmosphere. The assays were performed in the logarithmic growth phase at a density of 2.5×10^5 cells/cm^2. Intracellular cAMP synthesis was induced by addition of […] (−)isoproterenol. After 30 min incubation at 37° C. the medium was removed and the cellular amount of cAMP was determined using the cAMP-enzyme immunoassay Amersham kit. The I50 value was determined from a dose-response curve in duplicate. The effect of the novel 6,9-disubstituted purines was measured after simultaneous addition with isoproterenol.
# As P2Y1-like and A2 purinergic receptors, negatively and positively coupled to adenylate cyclase, respectively, are present in rat C6 glioma, it remains to be determined whether the modulation of the synthesis of cAMP is due to the inhibition of the activation of β-adrenergic receptors by isoproterenol, or due to the activation of purinergic receptors.
# [4] = tested on: Human T-lymphoblastic leukemia cell line CEM; assay: In vitro cytotoxicity, Calcein AM assay; conditions: Homo sapiens, 72 h, read-out: GI50 CEM
# Experimental: (§1) Because only metabolically active cells cleave Calcein AM, these assays detect viable cells exclusively. The quantity of reduced Calcein AM corresponds to the number of vital cells in the culture.
# (§2) The cells were maintained in Nunc/Corning 80 cm^2 plastic tissue culture flasks and cultured in cell culture medium (DMEM with 5 g/l glucose, 2 mM glutamine, 100 U/ml penicillin, 100 mg/ml streptomycin, 10% fetal calf serum and sodium bicarbonate).
# (§3) The cell suspensions that were prepared and diluted according to the particular cell type and the expected target cell density (2,500-30,000 cells per well based on cell growth characteristics) were added by pipette (80 ml) into 96-well microtiter plates. Inoculates were allowed a pre-incubation period of 24 hours at 37° C. and 5% CO2 for stabilization. Four-fold dilutions of the intended test concentration were added at time zero in 20 ml aliquots to the microtiter plate wells. Usually, the compound tested was evaluated at six 4-fold dilutions. […] All drug concentrations were examined in duplicate. Incubations of cells with the tested compounds lasted for 72 hours at 37° C., in a 5% CO2 atmosphere and 100% humidity. At the end of the incubation period, the cells were assayed by using Calcein AM. Ten microliters of the stock solution were pipetted into each well and incubated for 1 hour. Fluorescence (FD) was measured with the Labsystem FIA Reader Fluoroscan Ascent (UK).
# [5] = tested on: promyelocytic HL-60 leukemia; assay: In vitro cytotoxicity, Calcein AM assay; conditions: Homo sapiens, HL-60, 72 h, read-out: GI50 HL60
# Experimental: as §1, §2, §3
# [6] = tested on: breast carcinoma cell line MCF-7; assay: In vitro cytotoxicity, Calcein AM assay; conditions: Homo sapiens, MCF7, 72 h, read-out: GI50 MCF7
# Experimental: as §1, §2, §3
# mouse fibroblasts NIH3T3 = assay: In vitro cytotoxicity, Calcein AM assay; conditions: Mus musculus, NIH3T3, 72 h, read-out: GI50 NIH-3T3
# Experimental: as §1, §2, §3
# human osteosarcoma HOS = assay: In vitro cytotoxicity, Calcein AM assay; conditions: Homo sapiens, 72 h, read-out: GI50 HOS
compound,measurement,setting,value
Oc1ccc(CNc2ncnc3c2ncn3C2CCCCO2)cc1 (stereo not drawn) [6-(4-hydroxybenzylamino)-9-(tetrahydropyran-2-yl)purine],concentration with highest activity,"[1]; growth of tobacco callus, four weeks of cultivation, tested 10^−8 M to 10^−4 M",10^−5 mol · l^−1
same,Activity (%) [10^−5 mol · l^−1 BAP = 100%],"[1]; increase of fresh callus weight at the concentration with highest activity, 10^−5 M BAP = 100%",36%
same,concentration with highest activity,"[2]; betacyanin content after 48 h incubation, tested 10^−8 M to 10^−4 M",10^−4 mol · l^−1
same,Activity (%) [10^−5 mol · l^−1 BAP = 100%],"[2]; betacyanin content at the concentration with highest activity, 10^−5 M BAP = 100%",25.3%
same,activity (%) [10^−4 mol · l^−1 BAP = 100%],"excised wheat leaf tips; retention of chlorophyll in excised wheat leaf tips at the concentration with highest activity, 10 replicate determinations",10.1%
same,concentration with highest activity,"excised wheat leaf tips; retention of chlorophyll in excised wheat leaf tips, tested range 10^−8 M to 10^−4 M, 96 h in the dark at 25° C.",10^−4 mol · l^−1
same,SENESCENT CELLS (%) HCA20,[3]; human fibroblasts passage 20 (HCA20),5%
same,SENESCENT CELLS (%) HCA40,[3]; human fibroblasts passage 40 (HCA40),5%
same,SENESCENT CELLS (%) HCA60,[3]; human fibroblasts passage 60 (HCA60),16%
same,Effect (modulation of the activity of β-adrenergic receptors),β-adrenergic receptors,1.8-fold fold activation
same,GI50,[4],> 167 µM
same,GI50,[5],> 167 µM
same,GI50,[6],> 167 µM
same,GI50,mouse fibroblasts NIH3T3,> 167 µM
same,GI50,human osteosarcoma HOS,> 167 µM
